Measured values as given in ChEMBL document CHEMBL4400557, “The potential of click reactions for the synthesis of bioactive triterpenes” (Bioorg Med Chem Lett, 2019).
Blank lines part the entries; values can stand above or below the compound they belong to.

What was measured:
[1] = Inhibition of glycogen phosphorylase (unknown origin); set-up: species or system Homo sapiens
[2] = tested on: KB; experiment: Antiproliferative activity against human KB cells; assay type: functional, cell-based
[3] = tested on: HT-1080; experiment: Antiproliferative activity against human HT1080 cells after 72 hrs by MTT assay; assay type: functional, cell-based; conditions: HT-1080, 72 h
[4] = Antiproliferative activity against human A375-S2 cells after 72 hrs by MTT assay; assay type: functional, cell-based; conditions: A375-S2, 72 h
[5] = tested on: Human immunodeficiency virus 1; experiment: Antiviral activity against HIV-1 NL4-3; assay type: functional, organism-based; conditions: Human immunodeficiency virus 1, NL4-3
[6] = Inhibition of rabbit muscle glycogen phosphorylase; set-up: species or system Oryctolagus cuniculus
[7] = tested on: HL-60; experiment: Antiproliferative activity against human HL60 cells by MTT assay; assay type: functional, cell-based
[8] = tested on: AGS; experiment: Antiproliferative activity against human AGS cells after 3 days by MTT assay; assay type: functional, cell-based; conditions: 72 h
[9] = tested on: CCRF-CEM; experiment: Cytotoxicity in human CCRF-CEM cells incubated for 72 hrs by SRB assay; assay type: functional, cell-based
[10] = tested on: MDA-MB-231; experiment: Antiproliferative activity against human MDA-MB-231 cells by SRB assay; assay type: functional

- IC50 [1]: 1.4 µM
SMILES: CO[C@H]1O[C@H](Cn2cc(COC(=O)[C@]34CCC(C)(C)C[C@H]3C3=CC[C@@H]5[C@@]6(C)CC[C@H](O)C(C)(C)[C@@H]6CC[C@@]5(C)[C@]3(C)CC4)nn2)[C@@H](O)[C@H](O)[C@H]1O

- IC50 [2]: 8.1 µM
SMILES: C=C(C)[C@@H]1CC[C@]2(C(=O)NCc3cn(C4CC(n5cc(C)c(=O)[nH]c5=O)OC4CO)nn3)CC[C@]3(C)[C@H](CC[C@@H]4[C@@]5(C)CC[C@H](OC(=O)CC(=O)OC)C(C)(C)[C@@H]5CC[C@]43C)[C@@H]12 (stereo partly specified)

- IC50 [3]: 3.51 µM
SMILES: CC1(C)CC[C@]2(C(=O)OCc3cn(-c4ccc([N+](=O)[O-])cc4)nn3)CC[C@]3(C)C(=CC[C@@H]4[C@@]5(C)CC[C@H](O)C(C)(C)[C@@H]5CC[C@]43C)[C@@H]2C1
- IC50 [4]: 4.97 µM

- IC50 [1]: 2.59 µM
SMILES: CC1(C)CC[C@]2(C(=O)O)CC[C@]3(C)C(=CC[C@@H]4[C@@]5(C)CC[C@H](OCc6cn(CCCCCCn7cc(CO[C@H]8CC[C@]9(C)[C@H]%10CC=C%11[C@@H]%12CC(C)(C)CC[C@]%12(C(=O)O)CC[C@@]%11(C)[C@]%10(C)CC[C@H]9C8(C)C)nn7)nn6)C(C)(C)[C@@H]5CC[C@]43C)[C@@H]2C1

- IC50 [5]: 0.19 µM
SMILES: C=C(C)[C@@H]1CC[C@]2(C(=O)O[Si](c3ccccc3)(c3ccccc3)C(C)(C)C)CC[C@]3(C)[C@H](CC[C@@H]4[C@@]5(C)CC[C@H](O)C(C)(C)[C@@H]5CC[C@]43C)[C@@H]12

- IC50 [6]: 5.4 µM
SMILES: CCCCCCCCC(=O)OCc1cn(CC(=O)O[C@H]2CC[C@]3(C)[C@H]4CC=C5[C@@H]6CC(C)(C)CC[C@]6(C(=O)O)CC[C@@]5(C)[C@]4(C)CC[C@H]3C2(C)C)nn1

- IC50 [7]: 1.7 µM
SMILES: C=C(Cn1cc(-c2ccc(F)cc2)nn1)[C@@H]1CC[C@]2(C(=O)O)CC[C@]3(C)[C@H](CC[C@@H]4[C@@]5(C)CC[C@H](O)C(C)(C)[C@@H]5CC[C@]43C)[C@@H]12

- IC50 [8]: 8.9 µM
SMILES: CC1(C)CC[C@]2(C(=O)O)CC[C@]3(C)C(=CC[C@@H]4[C@@]5(C)CC[C@H](OC(=O)CCc6cn(Cc7ccc(Cl)cc7)nn6)C(C)(C)[C@@H]5CC[C@]43C)[C@@H]2C1

SMILES: C=C(Cn1cc(-c2ccccc2C=O)nn1)[C@@H]1CC[C@]2(C(=O)O)CC[C@]3(C)[C@H](CC[C@@H]4[C@@]5(C)CC[C@H](OC(C)=O)C(C)(C)[C@@H]5CC[C@]43C)[C@@H]12
- IC50 [9]: 3.3 µM

- GI50 [10]: 1.4 µM
SMILES: C[C@H]1[C@H](C)CC[C@]2(C(=O)OCCCn3cc(COC(=O)[C@]45CC[C@@H](C)[C@H](C)[C@H]4C4=CC[C@@H]6[C@@]7(C)CC[C@H](O)C(C)(C)[C@@H]7CC[C@@]6(C)[C@]4(C)CC5)nn3)CC[C@]3(C)C(=CC[C@@H]4[C@@]5(C)CC[C@H](O)C(C)(C)[C@@H]5CC[C@]43C)[C@H]12
